Test results reported in patent US20180094320A1, “IN VITRO DRUG METABOLISM REAGENT AND USES THEREOF” (priority 2016, published 2018).
Like-named read-outs stand apart in the source and are kept apart here.

What was measured:
human enterocytes = assay: 7-ethoxycoumarin O-deethylation (ECOD) activity in human enterocytes; assay type: in vitro ADME; settings: Group D permeabilized enterocytes with cofactors compared with Groups A-C (intact ± cofactors, permeabilized without cofactors)
Procedure: The assay was performed essentially as disclosed in Example 2, wherein the in vitro reagent comprises enterocytes and exogenous drug metabolizing enzyme co-factors (NADPH, UPGA, and PAPS), herein referred to as “cofactors”. As comparators, intact enterocytes, that were not permeabilized, were used wherein one group was incubated with cofactors and another group was incubated without cofactors, each in the presence of the xenobiotic test compound. Permeabilized enterocytes incubated without cofactors were used as a control. The test groups were: Group A—intact enterocytes incubated without cofactors; Group B—intact enterocytes incubated with cofactors; Group C—permeabilized enterocytes incubated without cofactors (control); Group D—the in vitro reagent (permeabilized enterocytes incubated with cofactors). […] Permeabilization (by freezing without cryoprotectants followed by thawing) allows maximal interaction of the intracellular enzymes with the substrate (7-ethoxycoumarin), and the addition of cofactors overcomes the dilution of intracellular cofactors due to permeabilization.

[1] = known in vivo hepatic clearance, human; cited from earlier work
2J2 = target: T1, 2J2 (Homo sapiens, UniProt P51589); assay: Pathway-selective substrate metabolism in human enterocytes, 2J2; assay type: in vitro ADME; settings: Intact Cryopreserved Enterocytes; 30 min, 37° C.
T1 construct: enterocytes are isolated from human intestines by collagenase digestion; endogenous in cells; host or cells: primary human enterocytes, intact or permeabilized with cofactors
T1 sequence (P51589 1-502): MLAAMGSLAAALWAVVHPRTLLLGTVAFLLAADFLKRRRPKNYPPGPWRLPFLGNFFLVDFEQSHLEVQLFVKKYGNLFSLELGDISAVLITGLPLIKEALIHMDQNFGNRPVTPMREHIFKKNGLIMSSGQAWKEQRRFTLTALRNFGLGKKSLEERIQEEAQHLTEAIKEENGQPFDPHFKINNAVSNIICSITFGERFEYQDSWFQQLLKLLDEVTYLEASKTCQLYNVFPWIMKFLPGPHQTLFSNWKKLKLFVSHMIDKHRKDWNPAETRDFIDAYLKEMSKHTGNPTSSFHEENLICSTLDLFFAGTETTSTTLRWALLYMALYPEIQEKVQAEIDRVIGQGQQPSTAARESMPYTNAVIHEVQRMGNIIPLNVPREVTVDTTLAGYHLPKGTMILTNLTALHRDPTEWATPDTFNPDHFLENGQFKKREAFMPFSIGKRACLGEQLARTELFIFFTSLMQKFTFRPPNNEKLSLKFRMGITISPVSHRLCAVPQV

[2] = tested on: permeabilized human hepatocytes
Procedure: The drugs evaluated were added at a concentration of 1 μM to a hepatocyte culture of 1 million cells/ml.

[3] = tested on: permeabilized human hepatocytes; assay: Cofactor-directed metabolic pathway selection of coumarin metabolism; assay type: in vitro ADME; settings: 75 micromolar coumarin, 30 min
Procedure: Intact human hepatocytes allow metabolism of a drug by all hepatic pathways, selection of a specific metabolic pathway for evaluation is not easily accomplished. […] The metabolism of coumarin was used as a model for cofactor directed metabolic pathway selection. See FIG. 12 for the co-factor directed pathway selection of coumarin metabolism with the present permeabilized human hepatocytes. The exogenous drug metabolizing enzyme co-factors used were 2 mM NADPH, 2 mM NADPH+1 mM PAPS and 2 mM NADPH+5 mM […], and no cofactor addition used as a control.

Row | Structure (SMILES) | Observed in vivo CIsys [1] [mL/min/kg] | further results
1 | CCOc1ccc2ccc(=O)oc2c1 [7-ethoxycoumarin] |  | 7-ethoxycoumarin O-deethylation (ECOD) activity (human enterocytes): Highest activity
2 | CN(C)C/C=C/C(=O)Nc1cc2c(Nc3ccc(F)c(Cl)c3)ncnc2cc1O[C@H]1CCOC1 [Afatinib] | 15 | 
3 | Cc1cc(=O)n(-c2ccccc2)n1C [Antipyrine] | 0.5 | 
4 | COc1ccc(CCN2CCC(Nc3nc4ccccc4n3Cc3ccc(F)cc3)CC2)cc1 [Astemizole] |  | Metabolic Activity, O-Demethyl Astemizole formation (2J2): BLQ
5 | CC(C)NCC(O)COc1ccc(CCOCC2CC2)cc1 (stereo not drawn) [Betaxolol] | 4.8 | 
6 | NC(=O)N1c2ccccc2C=Cc2ccccc21 [Carbamazepine] | 0.4 | 
7 | O=P1(N(CCCl)CCCl)NCCCO1 (stereo not drawn) [Cyclophosphamide] |  | cytotoxicity on HEK 293 cells (cellular ATP content) (HEK293 cells; with permeabilized human hepatocytes (cofactor supplemented) vs boiled or no hepatocytes, 24 hours): enhanced
8 | COc1ccc2c(c1)[C@]13CCCC[C@@H]1[C@H](C2)N(C)CC3 [Dextromethorphan] | 8.6 | Permeabilized Hepatocytes Average (predicted clearance) [2]: 7.3
9 | CN1C(=O)CN=C(c2ccccc2)c2cc(Cl)ccc21 [Diazepam] | 0.4 | 
10 | O=C(O)Cc1ccccc1Nc1c(Cl)cccc1Cl [Diclofenac] | 4.2 | 
11 | O=P1(NCCCl)OCCCN1CCCl (stereo not drawn) [Ifosfamide] |  | cytotoxicity on HEK 293 cells (cellular ATP content) (HEK293 cells): enhanced
12 | O=C1Nc2ccc(Cl)cc2C(c2ccccc2Cl)=NC1O (stereo not drawn) [Lorazepam] | 1.1 | 
13 | O=c1ccc2ccccc2o1 [coumarin] |  | Cofactor selection Result (metabolite formation) ([3]; NADPH only (2 mM)): minimal sulfation and glucuronidation; Cofactor selection Result (metabolite formation) ([3]; No co-factors): No metabolism
